Measured values from PubChem BioAssay AID2060626 (Molecular Pharmacology Branch, DTP, NCI, 2025).
Values joined by “and” are separate entries in the source; they are usually repeats but may differ in a detail not shown here. Identical values can stand only once.

System: 168753-222-R-J1-PDC complex spheroid viability
Assay: Anticancer human tumor 168753-222-R-J1-PDC patient-derived bladder carcinoma cell line growth inhibition [CLK]
Settings: for viability, T/C: stronger effect = lower value
In short: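 Multi-cell-type spheroids combined patient-derived tumor cells with HUVEC endothelial cells and human mesenchymal stem cells. Paired agents were dosed in half-log steps down from about clinical Cmax, or from 10 microM where Cmax was unknown.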

[1] = curve of first compound, second compound 0.0316 µM
[2] = curve of first compound, second compound 0.1 µM
[3] = curve of first compound, second compound 0.316 µM
[4] = curve of first compound, second compound 1 µM
[5] = curve of first compound, second compound 3.16 µM
[6] = curve of first compound, second compound 10 µM
[7] = second compound 0.0316 µM, first compound 0.0316 µM
[8] = second compound 0.0316 µM, first compound 0.1 µM
[9] = second compound 0.0316 µM, first compound 0.316 µM
[10] = second compound 0.0316 µM, first compound 1 µM
[11] = second compound 0.0316 µM, first compound 3.16 µM
[12] = second compound 0.0316 µM, first compound 10 µM
[13] = second compound 0.1 µM, first compound 0.0316 µM
[14] = second compound 0.1 µM, first compound 0.1 µM
[15] = second compound 0.1 µM, first compound 0.316 µM
[16] = second compound 0.1 µM, first compound 1 µM
[17] = second compound 0.1 µM, first compound 3.16 µM
[18] = second compound 0.1 µM, first compound 10 µM
[19] = second compound 0.316 µM, first compound 0.0316 µM
[20] = second compound 0.316 µM, first compound 0.1 µM
[21] = second compound 0.316 µM, first compound 0.316 µM
[22] = second compound 0.316 µM, first compound 1 µM
[23] = second compound 0.316 µM, first compound 3.16 µM
[24] = second compound 0.316 µM, first compound 10 µM
[25] = second compound 1 µM, first compound 0.0316 µM
[26] = second compound 1 µM, first compound 0.1 µM
[27] = second compound 1 µM, first compound 0.316 µM
[28] = second compound 1 µM, first compound 1 µM
[29] = second compound 1 µM, first compound 3.16 µM
[30] = second compound 1 µM, first compound 10 µM
[31] = second compound 3.16 µM, first compound 0.0316 µM
[32] = second compound 3.16 µM, first compound 0.1 µM
[33] = second compound 3.16 µM, first compound 0.316 µM
[34] = second compound 3.16 µM, first compound 1 µM
[35] = second compound 3.16 µM, first compound 3.16 µM
[36] = second compound 3.16 µM, first compound 10 µM
[37] = second compound 10 µM, first compound 0.0316 µM
[38] = second compound 10 µM, first compound 0.1 µM
[39] = second compound 10 µM, first compound 0.316 µM
[40] = second compound 10 µM, first compound 1 µM
[41] = second compound 10 µM, first compound 3.16 µM
[42] = second compound 10 µM, first compound 10 µM
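Also: viability measured after seven days of drug exposure.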
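For viability, T/C in this document: luminescence signal used as surrogate for viable cell amount; 100% = DMSO vehicle control wells.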

C#Cc1c(F)ccc2cc(O)cc(-c3ncc4c(N5CC6CCC(C5)N6)nc(OCC56CCCN5CC(F)C6)nc4c3F)c12 (stereo not drawn) + CNC(=O)c1ccc(Nc2nc(OC3CCCC3)c3c(-c4ccc5nc(C)oc5c4)c[nH]c3n2)c(OC)c1
IC50 [1]: > 10000 nM
IC50 [2]: > 10000 nM
IC50 [3]: 5140 nM
IC50 [4]: < 31.6 nM
IC50 [5]: < 31.6 nM
IC50 [6]: < 31.6 nM
viability, T/C [7]: 106%
viability, T/C [8]: 99.4%
viability, T/C [9]: 107%
viability, T/C [10]: 99.2%
viability, T/C [11]: 105%
viability, T/C [12]: 73.1%
viability, T/C [13]: 99.1%
viability, T/C [14]: 103%
viability, T/C [15]: 101%
viability, T/C [16]: 101%
viability, T/C [17]: 90.1%
viability, T/C [18]: 73%
viability, T/C [19]: 86%
viability, T/C [20]: 74.3%
viability, T/C [21]: 78.5%
viability, T/C [22]: 78.2%
viability, T/C [23]: 67.9%
viability, T/C [24]: 25.6%
viability, T/C [25]: 42.3%
viability, T/C [26]: 39.9%
viability, T/C [27]: 36.7%
viability, T/C [28]: 22.7%
viability, T/C [29]: 30.4%
viability, T/C [30]: 16.9%
viability, T/C [31]: 28.7%
viability, T/C [32]: 21.7%
viability, T/C [33]: 20%
viability, T/C [34]: 17.7%
viability, T/C [35]: 18.4%
viability, T/C [36]: 16.2%
viability, T/C [37]: 17.1%
viability, T/C [38]: 21.5%
viability, T/C [39]: 18.6%
viability, T/C [40]: 14.8%
viability, T/C [41]: 11.7%
viability, T/C [42]: 11.3%

CC(C)CC(NC(=O)C(Cc1ccccc1)NC(=O)c1cnccn1)B(O)O (stereo not drawn) + CN1CCN(c2cc(C(=O)Nc3cc4cc(-c5cnn(C)c5)ccc4cn3)ccn2)CC1
IC50 [1]: 2.02 nM
IC50 [2]: 1.26 nM
IC50 [3]: < 0.949 nM
IC50 [4]: < 0.949 nM
IC50 [5]: < 0.949 nM
IC50 [6]: < 0.949 nM
viability, T/C (second compound 0.0316 µM, first compound 0.000949 µM): 110%
viability, T/C (second compound 0.0316 µM, first compound 0.003 µM): 18.9%
viability, T/C (second compound 0.0316 µM, first compound 0.00949 µM): 0.44%
viability, T/C (second compound 0.0316 µM, first compound 0.03 µM): 0.32%
viability, T/C (second compound 0.0316 µM, first compound 0.0949 µM): 0.25%
viability, T/C (second compound 0.0316 µM, first compound 0.3 µM): 1.03%
viability, T/C (second compound 0.1 µM, first compound 0.000949 µM): 59.4%
viability, T/C (second compound 0.1 µM, first compound 0.003 µM): 20.9%
viability, T/C (second compound 0.1 µM, first compound 0.00949 µM): 0.36%
viability, T/C (second compound 0.1 µM, first compound 0.03 µM): 0.27%
viability, T/C (second compound 0.1 µM, first compound 0.0949 µM): 0.22%
viability, T/C (second compound 0.1 µM, first compound 0.3 µM): 0.23%
viability, T/C (second compound 0.316 µM, first compound 0.000949 µM): 11.4%
viability, T/C (second compound 0.316 µM, first compound 0.003 µM): 11.6%
viability, T/C (second compound 0.316 µM, first compound 0.00949 µM): 0.29%
viability, T/C (second compound 0.316 µM, first compound 0.03 µM): 0.17%
viability, T/C (second compound 0.316 µM, first compound 0.0949 µM): 0.2%
viability, T/C (second compound 0.316 µM, first compound 0.3 µM): 0.16%
viability, T/C (second compound 1 µM, first compound 0.000949 µM): 0.26%
viability, T/C (second compound 1 µM, first compound 0.003 µM): 0.22%
viability, T/C (second compound 1 µM, first compound 0.00949 µM): 0.57%
viability, T/C (second compound 1 µM, first compound 0.03 µM): 0.12%
viability, T/C (second compound 1 µM, first compound 0.0949 µM): 0.15%
viability, T/C (second compound 1 µM, first compound 0.3 µM): 0.15%
viability, T/C (second compound 3.16 µM, first compound 0.000949 µM): 1.04%
viability, T/C (second compound 3.16 µM, first compound 0.003 µM): 0.22%
viability, T/C (second compound 3.16 µM, first compound 0.00949 µM): 0.34%
viability, T/C (second compound 3.16 µM, first compound 0.03 µM): 0.09%
viability, T/C (second compound 3.16 µM, first compound 0.0949 µM): 1.55%
viability, T/C (second compound 3.16 µM, first compound 0.3 µM): 0.25%
viability, T/C (second compound 10 µM, first compound 0.000949 µM): 0.63%
viability, T/C (second compound 10 µM, first compound 0.003 µM): 0.26%
viability, T/C (second compound 10 µM, first compound 0.00949 µM): 0.23%
viability, T/C (second compound 10 µM, first compound 0.03 µM): 0.18%
viability, T/C (second compound 10 µM, first compound 0.0949 µM): 1.16%
viability, T/C (second compound 10 µM, first compound 0.3 µM): 1.04%

O=c1[nH]cc(F)c(=O)[nH]1 + CNC(=O)c1ccc(Nc2nc(OC3CCCC3)c3c(-c4ccc5nc(C)oc5c4)c[nH]c3n2)c(OC)c1
IC50 [1]: > 10000 nM
IC50 [2]: > 10000 nM
IC50 [3]: > 10000 nM
IC50 [4]: < 31.6 nM
IC50 [5]: < 31.6 nM
IC50 [6]: < 31.6 nM
viability, T/C [7]: 110%
viability, T/C [8]: 113%
viability, T/C [9]: 106%
viability, T/C [10]: 108%
viability, T/C [11]: 92.3%
viability, T/C [12]: 98.5%
viability, T/C [13]: 92.3%
viability, T/C [14]: 94.8%
viability, T/C [15]: 86.8%
viability, T/C [16]: 115%
viability, T/C [17]: 90.4%
viability, T/C [18]: 85.1%
viability, T/C [19]: 83.6%
viability, T/C [20]: 77.3%
viability, T/C [21]: 66.5%
viability, T/C [22]: 73.4%
viability, T/C [23]: 68.8%
viability, T/C [24]: 67%
viability, T/C [25]: 42.1%
viability, T/C [26]: 36%
viability, T/C [27]: 27.9%
viability, T/C [28]: 28.2%
viability, T/C [29]: 31.7%
viability, T/C [30]: 27.7%
viability, T/C [31]: 20.3%
viability, T/C [32]: 18.1%
viability, T/C [33]: 19.9%
viability, T/C [34]: 15.6%
viability, T/C [35]: 18.4%
viability, T/C [36]: 24.6%
viability, T/C [37]: 17.1%
viability, T/C [38]: 17.1%
viability, T/C [39]: 18.7%
viability, T/C [40]: 15.7%
viability, T/C [41]: 18.6%
viability, T/C [42]: 23.5%

O=C(c1cc(Cc2n[nH]c(=O)c3ccccc23)ccc1F)N1CCN(C(=O)C2CC2)CC1
viability, T/C (compound 0.0316 µM): 76.1% and 102%
viability, T/C (compound 0.1 µM): 97.4% and 102%
viability, T/C (compound 0.316 µM): 93.7% and 95.2%
viability, T/C (compound 1 µM): 62% and 95.9%
viability, T/C (compound 3.16 µM): 46.3% and 107%
viability, T/C (compound 10 µM): 70.3% and 93.2%
IC50 (curve of compound): > 10000 nM
